Here are results for ten compounds from patent EP1242382B1, “TRICYCLIC PROTEIN KINASE INHIBITORS” (Wyeth, priority 1999, dated 2001).

≈ marks a conversion by molar mass, not a printed value. Some results are limits rather than exact numbers.

One may read the IC50 as the concentration that gives 50% inhibition.

The subject of one test is MDA-MB-435. The experiment in a line: Inhibition of cancer cell growth as measured by cell number (Sulforhodamine B). It counts as cell-based. Particulars: Homo sapiens, 48 hours exposure. As to the method: (§1) Human tumor cell lines are plated in 96-well plates (250 µl/well, 1-6 x 10^4 cells/ml) in RPMI 1640 medium, containing 5% FBS (Fetal Bovine Serum). Twenty four hours after plating, test compounds are added at various concentrations. After 48 hours exposure to test compounds, cells are fixed with trichloroacetic acid, and stained with Sulforhodamine B. After washing with trichloroacetic acid, bound dye is solubilized in 10 mM Tris base and optical density is determined using plate reader. Under conditions of the assay the optical density is proportional to the number of cells in the well. […] The test procedure is described in detail by Philip Skehan et. al, J. Natl. Canc. Inst., 82, 1107-1112 (1990). […] Information about some of the cell lines used in these test procedures is available from the American Type Tissue Collection: Cell Lines and Hybridomas, 1994 Reference Guide, 8th Edition.

The next test concerns A431. Described as above. The class given is cell-based. The settings on record: Homo sapiens, A-431; 48 hours exposure. As to the method: as §1
Another test has as its system SW620. Described as above. It counts as cell-based. Particulars: Homo sapiens, SW-620; 48 hours exposure. Here is the method: as §1
A further test has as its system SK-BR3. The description is as above. The settings on record: Homo sapiens, SK-BR-3; 48 hours exposure. The class given is cell-based. As to the method:
as §1

For test [1], the target named is T1, EGF-R Kinase (recombinant enzyme) (Homo sapiens, UniProt P00533).
T1 construct: EGFR cDNA encoding amino acids 645 - 1186 preceded by Met-Ala-(His)6; made in house; host or cells: Sf9 insect cells, recombinant baculovirus vHcEGFR52
T1 sequence (P00533 669-1210): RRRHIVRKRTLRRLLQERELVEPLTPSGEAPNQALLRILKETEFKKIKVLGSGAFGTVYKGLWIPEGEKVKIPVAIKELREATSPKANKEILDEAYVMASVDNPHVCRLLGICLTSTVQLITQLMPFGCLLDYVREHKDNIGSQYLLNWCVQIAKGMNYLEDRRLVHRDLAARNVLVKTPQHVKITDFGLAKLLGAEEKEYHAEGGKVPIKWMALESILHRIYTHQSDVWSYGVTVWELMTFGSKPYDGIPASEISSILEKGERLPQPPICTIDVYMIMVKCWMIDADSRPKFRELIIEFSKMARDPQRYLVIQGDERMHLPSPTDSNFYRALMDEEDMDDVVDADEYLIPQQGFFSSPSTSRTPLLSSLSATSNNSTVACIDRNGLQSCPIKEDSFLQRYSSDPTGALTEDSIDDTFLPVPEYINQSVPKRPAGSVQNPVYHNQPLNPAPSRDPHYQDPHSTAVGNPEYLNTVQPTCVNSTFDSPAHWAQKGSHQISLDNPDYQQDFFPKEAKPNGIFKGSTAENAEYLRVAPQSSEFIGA
Description: Inhibition of Epidermal Growth Factor Receptor Kinase (EGF-R) using recombinant enzyme. It counts as biochemical. The settings on record: RR-SRC peptide substrate, (a) = average of two tests. As to the method:
Representative test compounds are evaluated in a standard pharmacological test procedure to measure their ability to inhibit the phosphorylation of the tyrosine residue of a peptide substrate catalyzed by the enzyme epidermal growth factor receptor kinase. […] The enzyme used in this assay is the His-tagged cytoplasmic domain of EGFR. […] Sf9 cells in 100 mm plates are infected at a multiplicity of infection of 10 pfu/cell and cells are harvested 48 h post infection. A cytoplasmic extract is prepared using 1% Triton X-100 and applied to Ni-NTA column. After washing the column with 20 mM imidazole, HcEGFR is eluted with 250 mM imidazole (in 50 mM Na2HPO4, pH 8.0, 300 mM NaCl). Fractions collected are dialyzed against 10 mM HEPES, pH 7.0, 50 mM NaCl, 10% glycerol, 1ug/mL antipain and leupeptin and 0.1 mM Pefabloc SC. The protein is frozen in dry ice/methanol and stored -70°C.
Test compounds are made into 10 mg/mL stock solutions in 100% dimethylsulfoxide (DMSO). Prior to experiment, stock solutions are diluted to 500 uM with 100% DMSO and then serially diluted to the desired concentration with HEPES buffer (30 mM HEPES pH 7.4).
For the enzyme reaction, 10 uL of each inhibitor (at various concentrations) are added to each well of a 96-well plate. To this is added 3 uL of enzyme (1:10 dilution in 10mM HEPES, pH 7.4 for final conc. of 1:120). This is allowed to sit for 10 min on ice and is followed by the addition of 5 ul peptide (80 uM final conc.), 10ul of 4X Buffer containing 50 mM HEPES (pH 7.4), 200 mM Na3VO4, 40mM MnCl2, 80 uM ATP, 0.25 uL ^33P-ATP (>2500 Ci/mmol; Amersham) and 12 uL H2O. The reaction is allowed to run for 90 min at room temperature and is followed by spotting the entire volume onto precut P81 filter papers. The filter discs are washed 2X with 0.5% phosphoric acid and radioactivity is measured using a liquid scintillation counter.
The % inhibition of the test compound is determined for at least three different concentrations and the IC50 value is evaluated from the dose response curve. […] CPM(control) is in units of counts per minute and is a number expressing the amount of radiolabled ATP (γ-^33P) incorporated into the RR-SRC peptide substrate by the enzyme after 90 minutes at room temperature in the absence of test compound as measured by liquid scintillation counting. The CPM values are corrected for the background counts produced by ATP in the absence of the enzymatic reaction.

In the next test the target is T2, p60^c-src (Src) (Homo sapiens, UniProt P12931).
T2 construct: purchased Upstate Biotechnologies
T2 sequence (P12931 whole entry): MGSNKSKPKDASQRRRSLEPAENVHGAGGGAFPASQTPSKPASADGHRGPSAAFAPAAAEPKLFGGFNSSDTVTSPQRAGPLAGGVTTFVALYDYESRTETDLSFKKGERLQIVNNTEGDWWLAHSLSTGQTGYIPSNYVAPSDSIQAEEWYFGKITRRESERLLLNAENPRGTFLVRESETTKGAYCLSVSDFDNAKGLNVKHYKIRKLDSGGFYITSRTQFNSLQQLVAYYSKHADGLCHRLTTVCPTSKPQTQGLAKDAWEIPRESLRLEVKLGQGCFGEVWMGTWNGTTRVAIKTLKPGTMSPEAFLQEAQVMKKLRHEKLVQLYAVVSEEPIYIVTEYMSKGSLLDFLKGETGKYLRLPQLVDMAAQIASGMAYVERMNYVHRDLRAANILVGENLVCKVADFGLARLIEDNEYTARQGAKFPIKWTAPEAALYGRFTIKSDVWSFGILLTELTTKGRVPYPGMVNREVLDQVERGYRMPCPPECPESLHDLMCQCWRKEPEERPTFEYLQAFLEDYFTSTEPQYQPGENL
The experiment in a line: Src kinase test procedure (Elisa format). The class given is biochemical. Here is the method:
Inhibitors of p60^c-src (partially purified preparation purchased from Upstate Biotechnologies) tyrosine kinase activity are analyzed in an Elisa format. […] HRP-conjugated anti-phosphotyrosine is used to detect phosphorylated peptide via a color reaction. Conditions recommended by the manufacturer are employed.
Reaction conditions: Five microliter aliquots of each compound prepared fresh at the time of the assay are added as a solution in 10mM HEPES pH 7.5, 10% DMSO to the reaction well. Thirty-five microliters of reaction mix containing Src, buffer and peptide/bovine serum albumin mix are added to the compound wells and incubated at 30°C for 10 minutes (reaction buffer: 50mM TrisHCl pH 7.5, 10mM MgCl2, 0.1mM EGTA, 0.5mM Na3VO4). The reaction is started by addition of 10 microliters of ATP, incubated at 30°C for 1 hour, and stopped by addition of 20 microliters of 0.5M EDTA. The reaction mixture with the phosphorylated peptide is then transferred to a streptavidin-coated microtiter plate (provided in the kit) and allowed to bind for 20 minutes. Unbound peptide and reaction mixture is decanted and the plate is washed with PBS six times. Horseradish peroxidase-conjugated phosphotyrosine antibody supplied in the kit is incubated with the plate for one hour, then decanted. The plate is again washed with PBS six times.

Test [2] has as its system Rat2 fibroblasts stably transformed with v-Src/Hu c-Src fusion gene. The experiment in a line: Anchorage independent Src-transformed fibroblast proliferation test procedure. It counts as cell-based. The settings on record: Rattus norvegicus, the 3rd table c6, (a)-(d) = average of two to five runs, read-out: Src TF prolif IC50. From the text: Anchorage Independent Src-transformed Fibroblast Proliferation Test Procedure: Rat2 fibroblasts stably transformed with a plasmid containing a CMV promotor controlled v-Src/Hu c-Src fusion gene in which the catalytic domain of human c-Src is inserted in place of the v-Src catalytic domain in the v-Src gene are used for the measurement of src dependent suspension growth.

In the case of `N#Cc1cnc2cc3ccccc3cc2c1Nc1ccc(F)c(Cl)c1` [Example 4, 4-(3-Chloro-4-fluoroanilino)benzo[g]quinoline-3-carbonitrile], the 50% inhibitory concentration (IC50) with MDA-MB-435 turned out to be 1.65 µg/mL (≈ 4.74 µM); in the test on A431, 0.332 µg/mL (≈ 0.955 µM); in the test on SW620, 1.08 µg/mL (≈ 3.11 µM); with SK-BR3, 1.01 µg/mL (≈ 2.9 µM); in test [1], 5 nM.
`N#Cc1cnc2cc3cc(O)c(O)cc3cc2c1Nc1ccc(Cl)cc1Cl` [Example 15, 4-(2,4-Dichloroanilino)-7,8-dihydroxybenzo[g]quinoline-3-carbonitrile]: the concentration for half-maximal inhibition (IC50) with MDA-MB-435 is 0.85 µg/mL (≈ 2.15 µM); in the test with A431, 0.58 µg/mL (≈ 1.46 µM); in the test with SW620, 0.38 µg/mL (≈ 0.959 µM); in the test with SK-BR3 it was above 5 µg/mL. In addition, on p60^c-src (Src) (dose 0.01 µM, read-out: Src %Inh), the inhibition at 0.01 µM was found to be 10%.
Consider `N#Cc1cnc2c(c1Nc1cccc(Br)c1)C=C1N=CN=C1C2` [Example 37, 8-(3-Bromo-phenylamino)imidazo[4,5-g]quinoline-7-carbonitrile], for which the IC50 was determined as 3.48 µg/mL (≈ 9.56 µM) in the test with MDA-MB-435; 0.58 µg/mL (≈ 1.59 µM) in the test on A431; 3.72 µg/mL (≈ 10.2 µM) with SW620; 0.6 µg/mL (≈ 1.65 µM) in the test on SK-BR3; 1.5 nM in test [1].
Turning to `N#Cc1cnc2c(sc3ccccc32)c1Nc1cccc(Br)c1` [Example 65, 4-(3-Bromophenylamino)benzo[4,5]thieno[3,2-b]pyridine-3-carbonitrile], the IC50 with MDA-MB-435 is above 5 µg/mL; in the test with A431, above 5 µg/mL; in the test with SW620, above 5 µg/mL; with SK-BR3, above 5 µg/mL; in test [1] it was 1000 nM. Besides, at p60^c-src (Src) (dose 10 µM, read-out: Src %Inh), the inhibition at 10 µM stood at 7%.
Take `N#Cc1cnc2c(oc3ccccc32)c1Nc1cccc(Br)c1` [Example 85, 4-(3-Bromophenylamino)benzo[4,5]furo[3,2-b]pyridine-3-carbonitrile]: the half-inhibitory concentration (IC50) in the test on MDA-MB-435 was above 5 µg/mL; with A431 it was above 5 µg/mL; in the test on SW620 it was above 5 µg/mL; with SK-BR3 it was above 5 µg/mL; in test [1], 1000 nM. In addition, the “Src %Inh” value on p60^c-src (Src) (dose 10 µM) is given as 44%. For the same compound, the inhibition at 10 µM at p60^c-src (Src) (dose 10 µM, read-out: Src %Inh) was found to be 53%.
Regarding `N#Cc1cnc2c(sc3ccc([N+](=O)[O-])cc32)c1Nc1ccc(Cl)cc1Cl` [Example 90, 4-(2,4-Dichloroanilino)-8-nitro[1]benzothieno[3,2-b]pyridine-3-carbonitrile], the IC50 with MDA-MB-435 worked out at 0.46 µg/mL (≈ 1.11 µM); in the test with A431, 0.41 µg/mL (≈ 0.987 µM); with SW620 it was 0.67 µg/mL (≈ 1.61 µM); with SK-BR3, 0.59 µg/mL (≈ 1.42 µM). Moreover, the inhibition at 1 µM on p60^c-src (Src) (dose 1 µM, read-out: Src %Inh) was determined as 0%.
Take `N#Cc1cnc2c(sc3ccc(N)cc32)c1Nc1cccc(Br)c1` [Example 92, 8-Amino-4-(3-bromoanilino)-[1]benzothieno[3,2-b]pyridine-3-carbonitrile]: the half-inhibitory concentration (IC50) in the test with MDA-MB-435, in the test on A431, in the test with SW620 and in the test with SK-BR3 was above 5 µg/mL each time.
Take `C=CC(=O)Nc1ccc2sc3c(Nc4cccc(Br)c4)c(C#N)cnc3c2c1` [Example 93, N-[4-(3-Bromoanilino)-3-cyano[1]benzothieno[3,2-b]pyridin-8-yl]acrylamide]: the IC50 worked out at 1.69 µg/mL (≈ 3.76 µM) in the test with MDA-MB-435, 0.838 µg/mL (≈ 1.86 µM) in the test on A431, 1 µg/mL (≈ 2.23 µM) in the test with SW620 and 0.224 µg/mL (≈ 0.499 µM) with SK-BR3.
Regarding `C=CC(=O)Nc1cccc2c1sc1c(Nc3cccc(Br)c3)c(C#N)cnc12` [Example 94, N-[4-(3-Bromoanilino)-3-cyano[1]benzothieno[3,2-b]pyridin-6-yl]acrylamide], the concentration for half-maximal inhibition (IC50) in the test with MDA-MB-435 was 3.9 µg/mL (≈ 8.68 µM); in the test with A431, 1.11 µg/mL (≈ 2.47 µM); with SW620, above 5 µg/mL; in the test on SK-BR3, 1.09 µg/mL (≈ 2.43 µM); in test [1], 100 nM.
With `COc1cc2cc3ncc(C#N)c(Nc4ccc(F)c(Cl)c4)c3cc2cc1OCCN1CCOCC1` [Example 212, 4-(3-Chloro-4-fluoroanilino)-8-methoxy-7-[2-(4-morpholinyl)ethoxy]benzo[g]quinoline-3-carbonitrile], the concentration for half-maximal inhibition (IC50) in the test with A431 is 0.76 µg/mL (≈ 1.5 µM); in the test on SW620, 0.36 µg/mL (≈ 0.71 µM); in the test with SK-BR3, 0.04 µg/mL (≈ 0.0789 µM); in test [2], above 10000 nM; in test [1], 1890 nM.
